Measured values: patent US20210330611A1, “THERAPY FOR NEUROLOGICAL DISEASES/DISORDERS” (priority 2020, published 2021)
Structures can show the parent of a compound that is named as a salt. Where two headings read alike, the source gives them in different places.

How the values were obtained:
[1] = test system: fibrin-induced microglia activation; assay: Image-based assay of fibrin-induced microglia activation (HTS and dose response); assay type: cell-based, rat; settings: for inhibition at 10 µM: Rattus norvegicus, Microglia, read-out: Fibrin % inhibition
[2] = test system: LPS-induced microglia activation; assay: Image-based assay of LPS-induced microglia activation (HTS and dose response); assay type: cell-based, rat
[3] = test system: fibrin- and LPS-induced microglia activation; assay: cells; assay type: cell-based, rat
primary rat microglia [4] = test system: primary rat microglia;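 on Fibrin % cell toxicity: share of dead cells sized under 150 µm2 at 10 µM in fibrin-stimulated microglia HTS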
primary rat microglia [5] = test system: primary rat microglia; remark: listed apart in the source;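 on Fibrin % cell toxicity: share of dead cells sized under 150 µm2 at 10 µM in fibrin-stimulated microglia HTS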
[6] = primary microglia HTS, fibrin stimulation, cell size >800 μm2 as marker of activation
[7] = classification by fibrin and LPS inhibition in HTS
[8] = Rattus norvegicus, Microglia, 48 h, read-out: LPS % inhibition
[9] = Rattus norvegicus, Microglia, 48 h; read-out: LPS % inhibition
[10] = primary microglia HTS, fibrin stimulation, increased cell size (>800 μm^2) as marker of activation
[11] = Rattus norvegicus, Microglia, 48 h, primary microglia HTS, LPS stimulation; increased cell size (>800 μm^2) as marker of activation; read-out: LPS % inhibition
[12] = quadrant by fibrin and LPS inhibition in HTS of 1907 compounds

Row | Structure (SMILES) | Quadrant (FIG. 5b) [3, 7] | Fibrin % cell toxicity (primary rat microglia [4]; rat) | LPS % cell toxicity (primary rat microglia [5]; rat) | inhibition at 10 µM [1, 6] | inhibition at 10 µM [2, 9] | further results
1 | CC(=O)O[C@H]1CC[C@@]2(C)C(=CC[C@@H]3[C@@H]2CC[C@]2(C)C(=O)CC[C@@H]32)C1 [Praesterone Acetate, Prasterone Acetate] | Q4 | – | – | – | – | Fibrin % inhibition [1, 6]: −3%; LPS % inhibition [2]: 5%; Fibrin % cell toxicity (primary rat microglia [4]): 1%; LPS % cell toxicity (primary rat microglia [5]): 0%
2 | C[n+]1ccccc1/C=N/O [Pralidoxime] | – | 1% | 0% | – | – | inhibition at 10 µM [1]: -12%; inhibition at 10 µM [2, 8]: 17%; Quadrant (FIG. 5b) [3]: Q4
3 | CCCN[C@H]1CCc2nc(N)sc2C1 [Pramipexole] | – | 1% | 0% | – | – | inhibition at 10 µM [1]: -19%; inhibition at 10 µM [2, 8]: 1%; Quadrant (FIG. 5b) [3]: Q4
4 | O=C(C1CCCCC1)N1CC(=O)N2CCc3ccccc3C2C1 (stereo not drawn) [Praziquantel] | Q4 | 1% | 0% | -3% | 21% | –
5 | CC(=O)[C@H]1CC[C@H]2[C@@H]3CC=C4C[C@@H](OC(=O)CCC(=O)O)CC[C@]4(C)[C@H]3CC[C@]12C [Pregnenolone Succinate] | Q4 | 1% | 1% | 4% | 21% | –
6 | COc1cc(NC(C)CCCN)c2ncccc2c1 (stereo not drawn) [Primaquine] | – | 0% | 0% | – | – | inhibition at 10 µM [1]: -58%; inhibition at 10 µM [2, 8]: 7%; Quadrant (FIG. 5b) [3]: Q4
7 | CCCN(CCC)S(=O)(=O)c1ccc(C(=O)O)cc1 [Probenecid] | Q4 | 1% | 0% | 14% | 13% | –
8 | CNNCc1ccc(C(=O)NC(C)C)cc1 [Procarbazine] | Q4 | 1% | 0% | -21% | 9% | –
9 | CC(=O)[C@H]1CC[C@H]2[C@@H]3CCC4=CC(=O)CC[C@]4(C)[C@H]3CC[C@]12C [Progesterone] | Q4 | 1% | 0% | 36% | 36% | –
10 | CC(C)NCC(O)c1ccc2ccccc2c1 (stereo not drawn) [Pronetalol Hydrochloride] | Q4 | 1% | 0% | -12% | 10% | –
11 | CCCc1cc(=O)[nH]c(=S)[nH]1 [Propylthiouracil] | – | 0% | 0% | – | – | inhibition at 10 µM [1]: -4%; inhibition at 10 µM [2, 8]: 8%; Quadrant (FIG. 5b) [3]: Q4
12 | NC(=O)[C@@H]1CCCN1C(=O)[C@H](Cc1cnc[nH]1)NC(=O)[C@@H]1CCC(=O)N1 [Protirelin] | Q4 | – | – | – | – | Fibrin % inhibition [1, 6]: 2%; LPS % inhibition [2]: 15%; Fibrin % cell toxicity (primary rat microglia [4]): 1%; LPS % cell toxicity (primary rat microglia [5]): 1%
13 | CNCCCC1c2ccccc2C=Cc2ccccc21 [Protriptyline] | – | 1% | 0% | – | – | inhibition at 10 µM [1]: 21%; inhibition at 10 µM [2, 8]: 15%; Quadrant (FIG. 5b) [3]: Q4
14 | Cc1ncc(CO)c(CO)c1O [Pyridoxine] | Q4 | 1% | 0% | 1% | 21% | –
15 | [O-][n+]1ccccc1[S-].[O-][n+]1ccccc1[S-].[Zn+2] [Pyrithione Zinc] | – | – | – | – | – | Fibrin % inhibition ([1]; 10 µM): 109%; LPS % inhibition ([2]; 10 µM): 127%; Quadrant (FIG. 5b) [3]: Q2; Fibrin % cell toxicity (primary rat microglia [4]): 86%; LPS % cell toxicity (primary rat microglia [5]): 87%
16 | CCN(CC)CCCC(C)Nc1c2ccc(Cl)cc2nc2ccc(OC)cc12 (stereo not drawn) [Quinacrine] | – | 1% | 65% | – | – | inhibition at 10 µM [1, 10]: 24%; inhibition at 10 µM [2, 11]: 118%; Quadrant (FIG. 5b) [3, 12]: Q1
17 | C=C[C@H]1C[N@@]2CC[C@H]1C[C@@H]2[C@@H](O)c1ccnc2ccc(OC)cc12 [Quinidine] | Q4 | 1% | 0% | -6% | 20% | –
18 | C=C[C@H]1C[N@@]2CC[C@H]1C[C@H]2[C@H](O)c1ccnc2ccc(OC)cc12 [Quinine Sulfate] | Q4 | 1% | 1% | – | – | Fibrin % inhibition [1, 6]: −30%; LPS % inhibition [2]: 14%
19 | C=C[C@H]1C[N@@]2CC[C@H]1C[C@H]2[C@H](O)c1ccnc2ccc(OC)cc12 [Quinine] | Q4 | 1% | 0% | – | – | Fibrin % inhibition [1, 6]: −32%; LPS % inhibition [2]: −7%
20 | O=C(c1ccc(OCCN2CCCCC2)cc1)c1c(-c2ccc(O)cc2)sc2cc(O)ccc12 [Raloxifene] | – | 0% | 1% | – | – | inhibition at 10 µM [1, 10]: 7%; inhibition at 10 µM [2, 11]: 60%; Quadrant (FIG. 5b) [3, 12]: Q1
21 | CCOc1ccccc1OC(c1ccccc1)C1CNCCO1.CS(=O)(=O)O (stereo not drawn) [Reboxetine Mesylate] | Q4 | – | – | – | – | Fibrin % inhibition [1, 6]: −33%; LPS % inhibition ([2]; primary microglia HTS, LPS stimulation, cell size >800 μm2 as marker of activation): 8%; Fibrin % cell toxicity (primary rat microglia [4]): 1%; LPS % cell toxicity (primary rat microglia [5]): 0%
22 | COC(=O)[C@H]1[C@H]2C[C@@H]3c4[nH]c5cc(OC)ccc5c4CCN3C[C@H]2C[C@@H](OC(=O)c2cc(OC)c(OC)c(OC)c2)[C@@H]1OC [Reserpine] | – | 3% | 7% | – | – | inhibition at 10 µM [1, 10]: -4%; inhibition at 10 µM [2, 11]: 64%; Quadrant (FIG. 5b) [3, 12]: Q1
23 | Oc1cccc(O)c1 [Resorcinol] | Q4 | 0% | 0% | -4% | – | inhibition at 10 µM ([2]; Rattus norvegicus, Microglia, 48 h, primary microglia HTS, LPS stimulation, cell size >800 μm2 as marker of activation; read-out: LPS % inhibition): 8%
24 | CCCCCCCCCCCCCCCC(=O)OC/C=C(C)/C=C/C=C(C)/C=C/C1=C(C)CCCC1(C)C [Retinyl Palmitate] | Q4 | 0% | 0% | -15% | 11% | –
25 | CO[C@H]1/C=C/O[C@@]2(C)Oc3c(C)c(O)c4c(c3C2=O)C2=NC3(CCN(CC(C)C)CC3)NC2=C(NC(=O)/C(C)=C\C=C\[C@H](C)[C@H](O)[C@@H](C)[C@@H](O)[C@@H](C)[C@H](OC(C)=O)[C@@H]1C)C4=O [Rifabutin] | Q4 | 0% | 0% | -51% | 2% | –
26 | CO[C@H]1/C=C/O[C@@]2(C)Oc3c(C)c(O)c4c(O)c(c(/C=N/N5CCN(C)CC5)c(O)c4c3C2=O)NC(=O)/C(C)=C\C=C\[C@H](C)[C@H](O)[C@@H](C)[C@@H](O)[C@@H](C)[C@H](OC(C)=O)[C@@H]1C [Rifampicin] | – | 1% | 0% | – | – | Fibrin % inhibition [1]: −21%; LPS % inhibition [2]: 7%; Quadrant (FIG. 5b) [3]: Q4
27 | CO[C@H]1/C=C/O[C@@]2(C)Oc3c(C)c(O)c4c(O)c(c(/C=N/N5CCN(C)CC5)c(O)c4c3C2=O)NC(=O)/C(C)=C\C=C\[C@H](C)[C@H](O)[C@@H](C)[C@@H](O)[C@@H](C)[C@H](OC(C)=O)[C@@H]1C [Rifampin] | – | 1% | 0% | – | – | Fibrin % inhibition [1]: 8%; LPS % inhibition [2]: 20%; Quadrant (FIG. 5b) [3]: Q4
